What was measured:
Assay in all cases: relative viability (nuclei count vs DMSO), 5 days (fraction); higher = more cells survive
[1] = compound: C1CNCCC1C2=CC(=NN2)C3=CC=NC=C3 + Cc1cc(Nc2cc(N3CCN(C)CC3)nc(Sc3ccc(NC(=O)C4CC4)cc3)n2)n[nH]1 [Tozasertib] (partner 0.1 µM)
How it was run: (§1)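 A single step with final 0.05% Triton X-100, 1% formaldehyde and 1 ug/ml Hoechst fixed the cells and stained nuclei 5 days after treatment. Lung cancer cell lines in 1536-well plates had been treated by pin tool the day after seeding with one drug alone or a fixed anchor-drug dose plus five library-drug doses (not always all listed) in √10 steps, and nuclei were counted on 4× images. Relative viability is the ratio of nuclei in treated wells to nuclei in vehicle wells, taken as the median of duplicate plates.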

[2] = compound: C1CNCCC1C2=CC(=NN2)C3=CC=NC=C3 + O=C(c1cc(Cc2n[nH]c(=O)c3ccccc23)ccc1F)N1CCN(C(=O)C2CC2)CC1 [Olaparib] (partner 8 µM)
How it was run: as §1

[3] = compound: C[C@@H](N)c1ccc(C(=O)Nc2ccnc3[nH]ccc23)cc1 + N=C(N)NC(=N)NCCc1ccccc1 [Phenformin] (partner 250 µM)
How it was run: as §1

[4] = compound: C[C@@H](N)c1ccc(C(=O)Nc2ccnc3[nH]ccc23)cc1 + C[C@]1(O)C[C@@H](c2nc(-c3ccc4ccc(-c5ccccc5)nc4c3)c3c(N)nccn32)C1 [Linsitinib] (partner 1 µM)
How it was run: as §1

| Cell Line | relative viability ([1]; first compound 0.08 µM) | relative viability ([1]; first compound 0.8 µM) | relative viability ([1]; first compound 2.53 µM) | relative viability ([1]; first compound 8 µM) | relative viability ([2]; first compound 0.08 µM) | relative viability ([2]; first compound 0.8 µM) | relative viability ([2]; first compound 2.53 µM) | relative viability ([2]; first compound 8 µM) | relative viability ([3]; first compound 0.04 µM) | relative viability ([3]; first compound 0.1265 µM) | relative viability ([3]; first compound 0.4 µM) | relative viability ([3]; first compound 1.265 µM) | relative viability ([3]; first compound 4 µM) | relative viability ([4]; first compound 0.04 µM) | relative viability ([4]; first compound 0.1265 µM) | relative viability ([4]; first compound 0.4 µM) | relative viability ([4]; first compound 1.265 µM) | relative viability ([4]; first compound 4 µM) |
| --- | --- | --- | --- | --- | --- | --- | --- | --- | --- | --- | --- | --- | --- | --- | --- | --- | --- | --- |
| NCI-H2126 | 0.674 | 0.974 | 0.916 | 0.858 | 0.933 | 0.875 | 0.923 | 0.939 | 0.588 | 0.558 | 0.592 | 0.505 | 0.502 | 0.726 | 0.72 | 0.805 | 0.705 | 0.781 |
| NCI-H1944 | 0.243 | 0.264 | 0.263 | 0.256 | 0.403 | 0.384 | 0.389 | 0.384 | 0.157 | 0.216 | 0.153 | 0.165 | 0.138 | 1.28 | 1.16 | 1.17 | – | 0.835 |
| NCI-H358 | 0.106 | 0.101 | 0.106 | 0.0938 | 0.48 | 0.691 | 0.648 | 0.525 | 0.374 | 0.358 | 0.314 | 0.32 | 0.246 | 0.707 | 0.655 | 0.732 | 0.801 | 0.702 |
| NCI-H1734 | 0.27 | 0.279 | 0.269 | 0.271 | 0.581 | 0.639 | 0.598 | 0.635 | 0.355 | 0.383 | 0.431 | 0.282 | 0.397 | 0.901 | 0.905 | 0.805 | – | 0.708 |
| A-427 | 0.203 | 0.214 | 0.19 | 0.22 | 0.589 | 0.775 | 0.752 | 0.716 | 0.287 | 0.402 | 0.332 | – | 0.284 | 1.08 | 1.11 | 1.06 | – | 1.12 |
| RERF-LC-KJ | 0.525 | 0.51 | 0.591 | 0.426 | 0.849 | 0.873 | 0.945 | 0.954 | 0.417 | 0.435 | 0.446 | 0.434 | 0.425 | 0.896 | 0.871 | 0.998 | 0.944 | 0.861 |
| NCI-H727 | 0.613 | 0.51 | 0.87 | 0.545 | 0.76 | 0.798 | 0.669 | 0.69 | 0.583 | 0.653 | 0.669 | 0.748 | 0.756 | 0.135 | 0.559 | 0.493 | 0.736 | 0.785 |
| LCLC-97TM1 | 0.225 | 0.177 | 0.256 | 0.293 | 0.341 | 0.399 | 0.429 | 0.326 | 0.418 | 0.458 | 0.521 | 0.365 | 0.427 | 0.192 | 0.2 | 0.202 | 0.29 | 0.349 |
| BEN | 0.575 | 0.514 | 0.45 | 0.513 | 1.01 | 1.09 | 1.2 | 0.967 | 0.279 | 0.265 | 0.258 | 0.267 | 0.248 | 0.981 | 0.86 | 0.991 | 1.02 | 0.636 |
| NCI-H2023 | 0.351 | 0.3 | 0.482 | 0.256 | 0.354 | 0.494 | 0.488 | 0.538 | 0.451 | 0.482 | 0.512 | 0.457 | 0.411 | 0.734 | 0.691 | 0.724 | 0.798 | 0.663 |
| LC-2-ad | – | 0.445 | 0.485 | 0.467 | 0.719 | 0.781 | 0.664 | 0.694 | 0.549 | 0.599 | 0.609 | – | 0.558 | 0.849 | 0.922 | 0.877 | 0.83 | 0.615 |
| ABC-1 | 0.145 | 0.17 | 0.201 | 0.176 | 0.826 | 0.795 | 1.15 | 0.84 | 0.254 | 0.262 | 0.227 | – | 0.243 | 0.894 | 0.81 | 0.998 | 0.911 | 0.683 |
| NCI-H647 | 0.263 | 0.413 | 0.297 | 0.263 | 0.556 | 0.661 | 0.511 | 0.552 | 0.443 | 0.488 | 0.516 | 0.476 | 0.51 | 1.14 | 1.18 | 1.22 | 1.28 | 0.976 |
| NCI-H1755 | 0.583 | – | 0.643 | 0.526 | 0.974 | 0.922 | 0.857 | 0.852 | 0.504 | 0.687 | 0.657 | 0.525 | 0.426 | 1.03 | 0.977 | 0.947 | 0.86 | 0.716 |
| EPLC-272H | 0.357 | 0.221 | 0.367 | 0.314 | 0.973 | 0.761 | 0.935 | 0.801 | 0.365 | 0.44 | 0.279 | 0.198 | 0.241 | 1.34 | 1.24 | 1.28 | – | 1.13 |
| NCI-H1437 | 0.412 | 0.415 | 0.417 | 0.421 | 0.636 | 0.644 | 0.679 | 0.642 | 0.335 | 0.346 | 0.35 | 0.324 | 0.336 | 1.14 | 1.04 | 1.07 | 1.14 | 0.897 |
| EKVX | 0.396 | 0.303 | 0.491 | 0.401 | 0.882 | – | 1.05 | 0.755 | 0.228 | 0.245 | 0.241 | 0.124 | 0.222 | 1.12 | 1.13 | 1.2 | 1.19 | 1.01 |
| NCI-H1651 | 0.598 | 0.685 | 0.767 | 0.735 | 0.174 | 0.202 | 0.191 | 0.176 | 0.426 | 0.315 | 0.312 | 0.372 | 0.301 | 1.12 | 0.932 | 0.987 | 1.13 | 0.994 |
| HCC-15 | 0.517 | 0.372 | 0.484 | 0.355 | 0.694 | 0.789 | 0.766 | 0.588 | 0.447 | 0.465 | 0.437 | – | 0.424 | 0.951 | 0.888 | 0.845 | – | 0.797 |

Source: the supplement of paper PMC10307832
